Assays:
mAdiponectin promoter = experiment: NHR-promoter luciferase screen, mAdiponectin promoter; assay type: cell-based, mouse; settings: for Luc. act., normalized to lacZ / Normalized Luc. act., normalized to control: Adiponectin, HR component without or with its ligand; for mAdiponectin promoter reporter activity: transcription factor +/- ligand, control = 1.00
Method: (§1) The use, feasibility, and reproducibility of the functional NHR-promoter screen in a 48-well format have been tested validated. Briefly, there were co-expressed 50 ng of each NHR/NHR homodimer or NHR/RXR heterodimer with 100 ng promoter/luciferase construct and 50 ng of LacZ (as a control for transfection efficiency) in CV-1 cells using Fugene HD (Roche) as a transfection reagent (alternatively or additionally, a CMV-YFP construct can be used as a transfection control). Each of the nuclear hormone receptors that were used in these experiments was cloned into a pcDNA3.1 vector and comprised a C-terminally linked V5H6 tag. Twenty-four hours after transfection, appropriate ligands were added, where applicable, (see Table 5 for various ligands and concentrations and after 48 hrs, samples were assayed for luciferase and LacZ activity. To measure for luciferase activity 15 ul of sample was added to 30 ul of luciferase buffer (20 mM tricine, 1.07 mM MgCarbonate, 2.67 mM MgSulfate, 0.1 mM Naz-EDTA, 5 mM DTT, 5 mM ATP, 0.15 mg/ml CoA, 0.5 mM Luciferin), mixed briefly, and run in a Perkin Elmer Victor 5 luminometer. Thus, the functional NHR-promoter screen was used to observe the transcriptional activity of 29 promoters from various physiological pathways including inflammation, lipid and sugar metabolism, cholesterol transport, xenobiotic metabolism, and circadian rhythm.
(§2) The promoters that facilitate transcription of the indicated gene products that were tested using the protocols described herein are listed in the first row of the table. The nuclear hormone receptors and, where applicable, ligands that were assayed for their transcriptional effects on the promoters are listed in the first column of the table. The data represent the luciferase activity of each sample normalized to both the lacZ activity of that sample and to a control, e.g., no NHR or ligand, as customary in the art. As described previously, these normalizations allow the transcriptional activity of each reporter cell to be compared to other samples.
(§3) Tables 7-40 show the transcriptional effects of the hormone receptors, and, where applicable, ligands (orphan receptors are screened without ligand), on each individual promoter. […] The control data of each table are shown in their last rows.

RevErba promoter = experiment: NHR-promoter luciferase screen, RevErba (RVRa) promoter; assay type: cell-based; design: key to mRevErba promoter reporter activity / Normalized Luc. act., normalized to control: luciferase activity normalized to lacZ and to control (no NHR/ligand); settings: for Luc. act., normalized to lacZ / Normalized Luc. act., normalized to control / negative reciprocal of normalized Luc. act. (fold repression; Table 33) / normalized Luc. act. on a logarithmic scale (column without head, Table 33): RVRa promoter; for Luc. act., normalized to lacZ / Normalized Luc. act., normalized to control: HR component without or with ligand; for negative reciprocal of normalized Luc. act. (fold repression; Table 33): given only where activity is below control; for normalized Luc. act. on a logarithmic scale (column without head, Table 33): log10 of activity normalized to control; for mRevErba promoter reporter activity: transcription factor +/- ligand, control = 1.00
Method: (§4) Briefly, there were co-expressed 50 ng of each NHR/NHR homodimer or NHR/RXR heterodimer with 100 ng promoter/luciferase construct and 50 ng of LacZ (as a control for transfection efficiency) in CV-1 cells using Fugene HD (Roche) as a transfection reagent (alternatively or additionally, a CMV-YFP construct can be used as a transfection control). Each of the nuclear hormone receptors that were used in these experiments was cloned into a pcDNA3.1 vector and comprised a C-terminally linked V5H6 tag.
as §2
The control data of each table are shown in their last rows.

mPer1 promoter = experiment: NHR-promoter luciferase screen, mPer1 promoter; assay type: cell-based, mouse; settings: for Luc. act., normalized to lacZ / Normalized Luc. act., normalized to control: Per1 promoter reporter, co-transfected HR, with or without its ligand; for Normalized Luc. act., normalized to control: relative to control; for luciferase activity normalized to lacZ activity and to a control, mPer1: mPer1 promoter-luciferase, CV-1 cells, NHR +/- ligand, control = 1.00
Method: as §1, §2, §3

hPPARg1 promoter = experiment: NHR-promoter luciferase screen, hPPARg1 promoter; assay type: cell-based, human; settings: for Luc. act., normalized to lacZ / Normalized Luc. act., normalized to control: PPARG1 promoter, hormone receptor with or without its ligand; for Normalized Luc. act., normalized to control: relative to control; for Results of assays of transcription factor (+/- ligand) with hPPARg1: Table 6d, luciferase activity relative to control (control = 1.00)
Method: as §1, §2, §3

mPgc1b promoter = experiment: NHR-promoter luciferase screen, mPgc1b promoter; assay type: cell-based, mouse; settings: for Luc. act., normalized to lacZ / Normalized Luc. act., normalized to control: PGC1b promoter reporter, co-transfected HR, without or with its ligand; for Normalized Luc. act., normalized to control: relative to control; for luciferase activity normalized to lacZ activity and to a control, mPgc1b: mPgc1b promoter-luciferase, CV-1 cells, NHR +/- ligand, control = 1.00
Method: as §4, §2, §3

Substance	Luc. act., normalized to lacZ (mAdiponectin promoter)	Normalized Luc. act., normalized to control (mAdiponectin promoter)	mAdiponectin promoter reporter activity (mAdiponectin promoter)	Luc. act., normalized to lacZ (RevErba promoter)	Normalized Luc. act., normalized to control (RevErba promoter)	negative reciprocal of normalized Luc. act. (fold repression; Table 33) (RevErba promoter)	normalized Luc. act. on a logarithmic scale (column without head, Table 33) (RevErba promoter)	mRevErba promoter reporter activity (RevErba promoter)	Luc. act., normalized to lacZ (mPer1 promoter)	Normalized Luc. act., normalized to control (mPer1 promoter)	luciferase activity normalized to lacZ activity and to a control, mPer1 (mPer1 promoter)	Luc. act., normalized to lacZ (hPPARg1 promoter)	Normalized Luc. act., normalized to control (hPPARg1 promoter)	Results of assays of transcription factor (+/- ligand) with hPPARg1 (hPPARg1 promoter)	Luc. act., normalized to lacZ (mPgc1b promoter)	Normalized Luc. act., normalized to control (mPgc1b promoter)	luciferase activity normalized to lacZ activity and to a control, mPgc1b (mPgc1b promoter)
GR: Glucocorticoid Receptor (NR3C1), cDNA driver	33.2	0.5	0.53	12.3	0.4	−2.269	−0.36	0.44	384.1	2.7	2.67	37.2	0.5	0.54	3.2	0.3	0.27
PNR: Photoreceptor-specific Nuclear Receptor (NR2E3), cDNA driver	70.7	1.1	1.13	7.1	0.3	−3.936	−0.60	0.25	93.4	0.6	0.65	45.9	0.7	0.67	4.9	0.4	0.42
VDR: Vitamin D Receptor (NR1I1), cDNA driver	57.4	0.9	0.91	27.5	1.0	−1.018	−0.01	0.98	97.1	0.7	0.67	38.1	0.6	0.55	6.85	0.6	0.58
ERR1: Estrogen Related Receptor α (NR3B1, ERRa), cDNA driver	49.2	0.8	0.78	33.3	1.2	–	0.08	1.19	197.1	1.4	1.37	59.1	0.9	0.86	8.8	0.7	0.75
AR: Androsterone Receptor (NR3C4), cDNA driver	82.7	1.3	1.32	13.5	0.5	−2.065	−0.31	0.48	123.5	0.9	0.86	90.6	1.3	1.31	9.0	0.8	0.76
PPARg: Peroxisome proliferator activated receptor γ (NR1C3), cDNA driver	80.6	1.3	1.28	40.6	1.5	–	0.16	1.45	154.5	1.1	1.07	75.7	1.1	1.10	11.35	1.0	0.96
LXRa: Liver X Receptor α (NR1H3), cDNA driver	60.7	1.0	0.97	–	–	–	–	–	100.6	0.7	0.70	80.8	1.2	1.17	8.40	0.7	0.71
RXRa: Retinoic X Receptor α (NR2B1), cDNA driver	57.3	0.9	0.91	26.26	0.9	−1.065	−0.03	0.94	75.8	0.5	0.53	45.6	0.7	0.66	8.6	0.7	0.72

From patent US20110263454A1, “Methods of Identifying Functional Characteristics of Promoters, Transcription Modifying Proteins and Transcription Modulating Agents” (Salk Institute for Biological Studies, priority 2008, published 2011)
